Each structure is given as a SMILES string.

Eleven molecules from EP4700018A1, “NAV1.8 INHIBITORS, PREPARATION METHOD THEREFOR AND USE THEREOF” (Shanghai Institute of Materia Medica, Chinese Academy of …, priority 2023, dated 2024) can be followed below.

Data set [1] has as its target human Nav1.8 sodium channel (Homo sapiens, UniProt Q9Y5Y9). Put plainly: Blocking activity on sodium channel 1.8 (Nav1.8), whole-cell manual patch clamp. The conditions noted are these: for inhibition at 0.001 µM: read-out: inhibition Percent @1 nM, 1 nM compound; for inhibition Percent @1 nM: 1 nM compound, 0.001 µM. It is filed as cell-based. In general terms: In patch-clamp work, channel activity is measured electrically.

Data set [2] is described as follows: In vivo pharmacokinetics in rats, single intravenous injection or oral gavage. The conditions noted are these: male, SD, plasma, Rat; for Vd: read-out: Vss. On the procedure: The in vivo pharmacokinetics in rats were evaluated via a single intravenous injection or oral gavage administration in this test example. • 1. Test Methods and Conditions: Male SD rats were fasted overnight and administered a single intravenous dose of 2 mg/kg or 1 mg/kg of the test compound (solvent for Intravenous administration was 5% DMSO/10% Solutol® HS 15/10% EtOH/75% saline, with a dosing volume of 5 mL/kg) and an oral gavage dose of 10 mg/kg or 5 mg/kg of the test compound (solvent for administration was 0.5% CMC-Na, with a dosing volume of 10 mL/kg), respectively. • 2. Sampling Information: Blood samples (0.2 mL) were collected from the retroorbital venous plexus at the designated time points: 0.25, 0.5, 1.0, 2.0, 3.0, 4.0, 6.0, 8.0, and 24 hours before and after dosing (a 5 min sampling point was added for the intravenous administration group), respectively. The samples were placed in EDTA-K2 tubes and centrifuged at 11,000 rpm for 5 minutes. Plasma was separated and frozen at -20°C. • 3. Assay Information: LC/MS/MS was used to determine the concentration of the parent drug in rat/mouse plasma following intravenous and oral gavage administration of the test compound. Pharmacokinetic parameters in rat/mouse plasma were calculated for both administration routes, and the bioavailability of each compound in rats was also calculated. Table 5: Intravenous Pharmacokinetic Information of Representative Compounds

The mark [3] stands for this setting: intravenous, single dose 2 mg/kg or 1 mg/kg (figure not given).

Chain of human Nav1.8 sodium channel (Q9Y5Y9 whole entry): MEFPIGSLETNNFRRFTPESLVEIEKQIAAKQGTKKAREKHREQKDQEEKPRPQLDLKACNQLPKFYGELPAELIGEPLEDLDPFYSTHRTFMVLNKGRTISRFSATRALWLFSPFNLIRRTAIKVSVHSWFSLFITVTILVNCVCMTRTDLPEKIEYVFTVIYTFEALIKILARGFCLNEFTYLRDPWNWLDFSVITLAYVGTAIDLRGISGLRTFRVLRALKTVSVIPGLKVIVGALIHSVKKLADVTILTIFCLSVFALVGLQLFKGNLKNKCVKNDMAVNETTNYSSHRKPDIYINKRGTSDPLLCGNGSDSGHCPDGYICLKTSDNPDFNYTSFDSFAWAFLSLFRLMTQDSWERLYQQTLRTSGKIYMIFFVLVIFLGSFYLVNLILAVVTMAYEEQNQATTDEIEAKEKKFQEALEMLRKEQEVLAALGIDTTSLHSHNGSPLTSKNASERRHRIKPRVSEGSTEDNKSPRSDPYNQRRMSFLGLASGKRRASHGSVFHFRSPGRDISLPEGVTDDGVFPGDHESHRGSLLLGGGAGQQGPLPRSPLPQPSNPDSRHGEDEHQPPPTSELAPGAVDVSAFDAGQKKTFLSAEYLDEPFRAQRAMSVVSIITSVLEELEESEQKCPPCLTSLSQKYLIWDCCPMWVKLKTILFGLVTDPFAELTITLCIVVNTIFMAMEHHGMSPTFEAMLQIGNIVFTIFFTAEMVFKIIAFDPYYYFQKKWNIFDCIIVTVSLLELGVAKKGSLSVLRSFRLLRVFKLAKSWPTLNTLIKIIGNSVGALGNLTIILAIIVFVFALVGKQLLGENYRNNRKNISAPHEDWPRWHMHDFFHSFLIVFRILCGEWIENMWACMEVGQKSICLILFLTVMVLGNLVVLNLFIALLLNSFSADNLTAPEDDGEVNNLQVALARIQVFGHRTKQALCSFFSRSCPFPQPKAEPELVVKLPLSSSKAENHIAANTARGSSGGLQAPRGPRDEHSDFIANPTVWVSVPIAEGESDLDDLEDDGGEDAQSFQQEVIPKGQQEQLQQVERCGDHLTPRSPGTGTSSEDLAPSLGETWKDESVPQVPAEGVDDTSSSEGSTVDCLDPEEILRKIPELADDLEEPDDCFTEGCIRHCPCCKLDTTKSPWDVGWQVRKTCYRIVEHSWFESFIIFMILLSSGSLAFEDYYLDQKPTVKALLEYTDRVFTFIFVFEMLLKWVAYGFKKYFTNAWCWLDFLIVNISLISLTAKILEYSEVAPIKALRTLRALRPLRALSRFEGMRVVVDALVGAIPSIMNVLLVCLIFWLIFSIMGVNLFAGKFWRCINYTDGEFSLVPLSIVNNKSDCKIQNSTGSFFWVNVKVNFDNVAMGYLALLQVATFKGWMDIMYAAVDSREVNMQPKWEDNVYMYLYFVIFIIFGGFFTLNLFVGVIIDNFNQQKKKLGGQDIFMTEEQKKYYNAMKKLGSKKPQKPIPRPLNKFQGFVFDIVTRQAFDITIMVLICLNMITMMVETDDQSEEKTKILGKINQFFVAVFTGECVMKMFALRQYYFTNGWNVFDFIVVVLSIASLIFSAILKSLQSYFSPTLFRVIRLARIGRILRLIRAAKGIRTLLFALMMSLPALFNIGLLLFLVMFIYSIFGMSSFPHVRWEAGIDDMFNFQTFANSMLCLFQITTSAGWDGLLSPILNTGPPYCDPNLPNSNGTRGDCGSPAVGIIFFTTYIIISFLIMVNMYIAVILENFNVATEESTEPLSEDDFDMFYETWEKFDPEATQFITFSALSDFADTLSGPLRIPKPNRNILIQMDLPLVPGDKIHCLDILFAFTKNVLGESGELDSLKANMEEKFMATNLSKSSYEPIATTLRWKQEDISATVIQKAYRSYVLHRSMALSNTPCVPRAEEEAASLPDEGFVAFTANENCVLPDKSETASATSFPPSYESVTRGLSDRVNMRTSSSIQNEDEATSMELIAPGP

In general, inhibition refers to the share of the control response that was lost under treatment. Take `CC1CN(c2nc(C(F)(F)F)c(Cl)cc2C(=O)Nc2ccc(F)c(C(N)=NO)c2)CCC1(F)F` (single isomer, unassigned) [Compound I-40-P1, 5-chloro-2-(4,4-difluoro-3-methylpiperidin-1-yl)-N-(4-fluoro-3-(N'-hydroxyamidino)phenyl)-6-(trifluoromethyl)nicotinamide]: in data set [1], the inhibition at 0.001 µM came out at 59%.

For `CC1CN(c2nc(C(F)(F)F)c(Cl)cc2C(=O)Nc2ccc(F)c(C(N)=NO)c2)CCC1(F)F` (single isomer, unassigned) [Compound I-40-P2, 5-chloro-2-(4,4-difluoro-3-methylpiperidin-1-yl)-N-(4-fluoro-3-(N'-hydroxyamidino)phenyl)-6-(trifluoromethyl)nicotinamide], in data set [1], the “inhibition Percent @1 nM” value stood at 63%.

For `Cc1nc(N2CCC(F)(F)C(C)C2)c(C(=O)Nc2ccc(F)c(C(N)=NO)c2)cc1Cl` (single isomer, unassigned) [Compound I-41-P1, 5-chloro-2-(4,4-difluoro-3-methylpiperidin-1-yl)-N-(4-fluoro-3-(N'-hydroxyamidino)phenyl)-6-(methyl)nicotinamide], the inhibition at 0.001 µM in data set [1] was found to be 38%.

Regarding `Cc1nc(N2CCC(F)(F)C(C)C2)c(C(=O)Nc2ccc(F)c(C(N)=NO)c2)cc1Cl` (single isomer, unassigned) [Compound I-41-P2, 5-chloro-2-(4,4-difluoro-3-methylpiperidin-1-yl)-N-(4-fluoro-3-(N'-hydroxyamidino)phenyl)-6-(methyl)nicotinamide], in data set [1], the “inhibition Percent @1 nM” value came out at 35%.

Regarding `Cc1nc(N2CCCC(F)(F)CC2)c(C(=O)Nc2ccc(F)c(C(=O)O)c2)cc1Cl` [Compound I7-b, 5-(5-chloro-2-(4,4-difluoroazepan-1-yl)-6-methylnicotinamido)-2-fluorobenzoic acid], the inhibition at 0.03 µM in data set [1] (read-out: inhibition Percent @30 nM, 30 nM compound) was determined as 33%.

In the case of `Cc1nc(N2CCCC(F)(F)CC2)c(C(=O)Nc2ccc(F)c(C(=N)N)c2)cc1Cl` [Compound I-2, N-(3-amidino-4-fluorophenyl)-5-chloro-2-(4,4-difluoroazepan-1-yl)-6-methylnicotinamide], the inhibition at 0.001 µM in data set [1] was determined as 79%.

Usually AUC(0-t) stands for exposure summed from dosing to a finite time, without extrapolation to infinity. Low readings indicate low exposure, high ones high exposure. What is called half-life is how long it takes for the measured level to halve. A low value points to fast loss. A word on the Cmax: it is the maximum level reached in the sampled fluid or tissue. By Tmax is commonly meant the time from dosing to the highest level. One may read the bioavailability as dose-corrected exposure relative to a reference, in per cent. On to `Cc1nc(N2CCCC(F)(F)CC2)c(C(=O)Nc2ccc(F)c(C(N)=NC#N)c2)cc1Cl` [Compound I-3, 5-chloro-N-(3-(N'-cyanoamidino)-4-fluorophenyl)-2-(4,4-difluoroazepan-1-yl)-6-meth ylnicotinamide], for which, in data set [2] (setting [3]), the AUC(0-t) was determined as 0.567 µg·h/mL, the clearance was found to be 1.78 L/h/kg, the half-life was 0.325 h and the Vd was 0.442 L/kg. Further, in data set [2] (oral gavage, 5mg/kg), the AUC(0-t) was determined as 1.77 µg·h/mL, the Cmax was determined as 0.381 µg/mL, the Tmax amounted to 6 h and the half-life is 2.08 h. In data set [2] (oral gavage, 5mg/kg), this molecule gave a bioavailability of 62.4%.

With `Cc1nc(N2CCCC(F)(F)CC2)c(C(=O)Nc2ccc(Cl)c(C(N)=NO)c2)cc1Cl` [Compound I-5, 5-chloro-2-(4,4-difluoroazepan-1-yl)-N-(4-chloro-3-(N'-hydroxyamidino)phenyl)-6-me thylnicotinamide], in data set [1], the inhibition at 0.001 µM came out at 82%.

As to `Cc1nc(N2CCCC(F)(F)CC2)c(C(=O)Nc2ccc(Cl)c(C(=N)N)c2)cc1Cl` [Compound I-6, N-(3-amidino-4-chlorophenyl)-5-chloro-2-(4,4-difluoroazepan-1-yl)-6-methylnicotinamide], the inhibition at 0.001 µM in data set [1] came out at 65%.

As for `Cc1ccc(NC(=O)c2cc(Cl)c(C)nc2N2CCCC(F)(F)CC2)cc1C(N)=NO` [Compound I-7, 5-chloro-2-(4,4-difluoroazepan-1-yl)-N-(3-(N'-hydroxyamidino)-4-methylphenyl)-6-me thylnicotinamide], the inhibition at 0.01 µM in data set [1] (read-out: inhibition Percent @10 nM, 10 nM compound) amounted to 83%.

Turning to `Cc1cc(F)ccc1Oc1cc(C(F)(F)F)ccc1C(=O)Nc1cc[nH]c(=O)c1` [VX-150, reference compound], in data set [2] (setting [3]), the AUC(0-t) worked out at 2.51 µg·h/mL, the clearance worked out at 0.834 L/h/kg, the half-life is 1.08 h and the Vd worked out at 1.09 L/kg. Besides, in data set [2] (oral gavage, 10mg/kg), the AUC(0-t) is 3.81 µg·h/mL, the concentration peaked (Cmax) at 0.723 µg/mL, the Tmax came out at 2 h and the half-life is 2.88 h. Besides, the bioavailability in data set [2] (oral gavage, 10mg/kg) was 30.4%.
